Results taken from ChEMBL document CHEMBL3507680, “University of Dundee, Gates Library screen for HepG2 cell viability”.

Assay: Human HepG2 cell viability assay in 384 well format
Assay type: toxicity, cell-based
Parameters: dose 125 nL, time 70.5 hour; cytotoxicity at 70.5 h: concentration not given beside the values
Details: HepG2 cells, read-out: Inhibition

SMILES | cytotoxicity at 70.5 h [%]
CCC(C(=O)NC1CCCCC1)n1ccc2ncccc2c1=O (centres undefined) | -11.8
O=C(c1cnn(-c2ccccc2F)c1)N1CCN(CCO)CC1 | -3.38
COCCN(C)CCN1CC2(CCN(C3CCOCC3)CC2)OC1=O | 20.5
OCC1CCCN(Cc2c(C3CCCC3)[nH]c3ncccc23)C1 (centres undefined) | 13.9
CN(C)c1ccc(C(O)CNS(=O)(=O)C2CC2)cc1 (centres undefined) | 10.1
CCOc1ccc(NC(C)=O)cc1S(=O)(=O)Nc1nccs1 | 22.7
COc1ccc(Oc2ncccc2C(F)(F)F)cc1CN1CCCC1 | 14
CN(CCCO)C(=O)c1cc(COc2ccc3c(c2)CCCC3)on1 | -7.55
CC(c1ccc(F)cc1F)N1CCN(Cc2nccn2C)CC1 (centres undefined) | -0.0589
CS(=O)(=O)N1CC2(CCN(C(=O)c3csnn3)CC2)c2ccccc21 | -4.79
Cc1nc(SCC(=O)Nc2ccc(C(N)=O)cc2)c(C#N)c(C)c1C | 4.83
CC(Cn1cccn1)NCc1nc(-c2ccccn2)no1 (centres undefined) | -11.1
Cc1nnc2n1CCN(C(=O)c1cn(-c3ccccc3)nn1)C2 | -1.52
CCc1ccccc1Nc1noc2c1CN(C(=O)c1ccn(C)n1)CC2 | 2.97
Cc1cncc(CN2CC[C@@](O)(CNC(=O)c3c[nH]cn3)[C@H](O)C2)c1 | -6.5
Cc1[nH]c2c(F)cccc2c1CC(=O)NCCCc1csc(N)n1 | 5.37
CN(C)c1ncc(NC(=O)N2CCC(CN3CCCC3)C2)cn1 (centres undefined) | 0.1
O=C(O)c1ccc(COc2cccc(Cl)c2)s1 | -5.91
Cn1ncc2c1C(COCC1CC1)CN(Cc1nccs1)C2 (centres undefined) | 6.16
CC(C)c1cn(CC(=O)NC2CC(=O)N(CCc3ccccc3)C2)nn1 (centres undefined) | -3.95
CN1CCCC(N(C)C(=O)c2ccc(NC(=O)c3cc[nH]n3)cc2)C1 (centres undefined) | -0.159
Cc1occc1C(=O)N1CC[C@H]2C[C@@H](c3nnc(C4CC4)o3)O[C@@H]2C1 | -12
Cc1nn(C(C)C)c2cn(CC(=O)NC3CCSCC3)nc12 | -3.25

SMILES | cytotoxicity at 70.5 h [%]
CC(C)c1nn(C)c(N2CCOCC2)c1CNC(C)c1ccccn1 (centres undefined) | -2.55
Cc1cc(C)n(C2CCCN(C(=O)Cc3csc(C)n3)C2)n1 (centres undefined) | 12.8
Cc1ccc(CN(C)Cc2cnc(N3CCOCC3)s2)o1 | 22.4
NCc1cccc(-c2cccnc2C(=O)NCCN2CCCC2)c1 | -8.26
CCCc1cnc(C)nc1N1CCC(Cn2cc(CO)nn2)CC1 | -3.5
Cc1ccc(NC(=O)Nc2cnc(N3CCN(C)CC3)nc2)c(Cl)c1 | 3.18
COc1cccc(CC2(CO)CCCN(c3nccs3)C2)c1 (centres undefined) | -1.79
CCNS(=O)(=O)c1cccc(CSC)c1 | 5.32
CNc1nc(CNC(=O)Nc2cccc(-c3ncc(C)o3)c2)cs1 | 9.47
CCn1cc(N)c(-c2nnc3n2CCC3)n1 | 13.1
CN1CCS(=O)(=O)[C@@H]2CCN(C(=O)CC(C)(C)C)CC[C@@H]21 | -3.84
CCSCCC(=O)NS(=O)(=O)c1ccc2c(c1)OCCO2 | -13.7
Cc1noc(C)c1CNC(=O)NCCOc1ccc(F)cc1F | -3.02
COc1ccc2c(c1)OCC(Cc1ccc(CN)cn1)C2 (centres undefined) | -7.48
Cc1noc(C(C)N(C)CC(=O)NCCc2ccc(Cl)cc2)n1 (centres undefined) | 24.6
O[C@@H]1CCN(c2ccc3c(Cl)ccnc3c2F)C1 | -8.44
NC(=O)c1ccc(C2CCCN2C(=O)Cn2nc3ccccc3n2)s1 (centres undefined) | 8.36
Cn1nnnc1SCC1(O)CCCCC1 | -5.84
CC(C)CN1CCN(C)C2(CCN(c3nccs3)CC2)C1=O | 33.2
COc1ccc(-c2nccn2CCN2CCCCC2)c(OC)c1OC | 4.66
Cc1cc(C)c2nc(CN3CCOCC(O)C3)cc(O)c2c1 (centres undefined) | -0.735
CCC(=O)Nc1ccc(C(C)NC(=O)COCCOC)cc1 (centres undefined) | 3.18
O=C(Nc1cnccn1)[C@@H]1C[C@H]2OCC[C@H]2N(Cc2ccsc2)C1 | -7.42

SMILES | cytotoxicity at 70.5 h [%]
CN(C)CC(C)(O)CNC(=O)Nc1sc2ccccc2c1Cl (centres undefined) | 8.3
CNC(=O)c1ccc(CN2CCN(C3=NCC(C)(C)S3)CC2)cc1 | 17.7
CC(C)n1[nH]c(=O)c2c1NC(=O)CC2c1cccc(OC(F)F)c1 (centres undefined) | 6.29
COC(=O)CN1CCCn2nc(CCC(=O)N3CCCC3)cc2C1 | 2.63
Cc1c(C(=O)N2CCS(=O)(=O)CC2)nnn1-c1ccc2ncccc2c1 | -4.2
Cc1cccc(CN2CCC3(CCCN(C(=O)c4ccoc4)C3)C2=O)n1 (centres undefined) | -3.14
COCC(=O)N1CCC2(C1)c1ccccc1S(=O)(=O)N2CCC(C)C (centres undefined) | -5.31
Cn1c(C(F)(F)F)nn(CCNC(=O)CSCc2ccccc2)c1=O | 0.995
O=C(Nc1cccc(N2CCN(CC3CC3)CC2)c1)C1CCOC1 (centres undefined) | -4.69
CNC(=O)[C@@]12CCC3(CCN(C(=O)COC)CC3)[C@@H]1CN(S(C)(=O)=O)C2 | 4.47
CN(C)C(=O)CN1CCc2onc(-c3ccccc3F)c2C1 | 48.8
Cc1cnc(Nc2cccc(C3CCCN3C(=O)CO)n2)s1 (centres undefined) | -6.4
O=C(CCN1CCN(c2ccc3nncn3n2)CC1)NC1CCCC1 | -5.28
CN(C)C(=O)CN1C[C@H]2CN(Cc3cccc(F)c3)C(=O)[C@H]2C1 | -5.27
O=C1CSc2ccccc2N1Cc1noc(C2CCCO2)n1 (centres undefined) | -5.67
CN(CC(F)(F)F)C(=O)CNC(=O)N1CCC(N2CCCC2)C1 (centres undefined) | -9.53
O=C(NCC1CC1)C1CCC2(CCN(C(=O)c3ccccn3)CC2)O1 (centres undefined) | 20.3
CCOCCN(CCOCC)c1nc(C)nc2sccc12 | -0.429
Cc1cccnc1NC(=O)C1CCCN(c2cccc(C(F)(F)F)n2)C1 (centres undefined) | -0.942
CN(C)C(=O)N1CCN(c2ccc(Cl)nn2)C(=O)C1 | -7.53
CCc1nn(C)c(Cl)c1CN1CCN(c2ccc(C(N)=O)cn2)CC1 | -8.09
CS(=O)(=O)NCc1nnc2n1CCN(Cc1ccccn1)C2 | -9
COc1cc(C2CC(=O)Nc3c2nc2n3CCCC2)cc2c1OCO2 (centres undefined) | -12

SMILES | cytotoxicity at 70.5 h [%]
CCCOc1cccc(OCc2ccon2)c1 | -7.15
c1cc(CN2C[C@@H]3OCCN(CCN4CCCC4)[C@@H]3C2)co1 | -10.1
Cc1cc(C)n(CC2CN(CC(=O)NC3CCCC3)CCO2)n1 (centres undefined) | 18.5
Cc1cccc2ncnc(N3CCOC(C)C3)c12 (centres undefined) | 2.61
Cc1ccc(-c2nc(CNC3CCc4ncnn4C3)cs2)cc1 (centres undefined) | 2.93
CCOc1c(C(N)=O)cn(C)c1-c1nc2cc(NC(C)=O)ccc2n1C | -19.2
CCc1n[nH]c(C2CN(C(=O)CCc3cscn3)CCO2)n1 (centres undefined) | 1.24
CCS(=O)(=O)CCn1ccc(NC(=O)CCc2cccc(C)c2)n1 | -2.75
CC(C)(C)OC(=O)N1CCC(C(=O)NCc2cc3ccccc3[nH]2)C1 (centres undefined) | -2.83
O=S(=O)(N1CCOCC1)N1CCOC(CCc2ccccc2)C1 (centres undefined) | -4.48
Cc1cccnc1N1CCN(C(=O)CCc2cn3ccccc3n2)CC1 | 15.3
CCOc1cccc(C(=O)Nc2ccncc2)c1 | -8.85
O=C(c1ccncc1F)N1CCCC1c1nc(-c2ccccc2)n[nH]1 (centres undefined) | -3.44
CN(C)C(=O)CN(C)C(=O)c1csc(Br)c1 | 13.6
COc1ccc(C)cc1CNC(=O)C1=NN(c2ccccc2)C(=O)CN1 | -5.19
OC(CN1CCCCc2ccccc21)Cn1cccn1 (centres undefined) | 1.14
CCc1ncc(CN(CCc2ccccc2)Cc2cccs2)cn1 | -2.18
CN(Cc1ccc(Cl)s1)C1CCCN(c2cccnn2)C1 (centres undefined) | -11.8
CCNC(=O)NC[C@@H]1C=C(C)[C@H](CC(=O)NCCN(C)C)C[C@H]1C(C)C | -0.736
Cc1cc(C)nc(N2CCC(C(=O)Nc3n[nH]c(C)n3)CC2)n1 | -7.75
O=C(C1CCOC1)N1CCc2ncnc(C3CC3)c2CC1 (centres undefined) | 0.686
COc1ccc(C(=O)N2CCCC2c2ccco2)cc1OC (centres undefined) | -12.1
O=C(Cc1ccc2c(c1)OCCO2)NC1CCN(CC(F)F)CC1 | -19.5

SMILES | cytotoxicity at 70.5 h [%]
Cc1nc(CN2CCO[C@@H]3CN(Cc4cccs4)C[C@@H]3C2)cs1 | -4.54
O=C(NCC1(CO)CC1)c1ccccc1F | -8.21
CS(=O)(=O)CC(=O)N1C[C@@H]2CN(Cc3ccoc3)CCO[C@@H]2C1 | -12
Cc1nnc(Nc2cccc(C3CCN(CCO)CC3)n2)s1 | -13.5
O=C(NCc1cc(C2CC2)n(C2CCCC2)n1)C1CC1 | -9.71
CN1CCCN(C(=O)c2cc3c(s2)CCN3C(=O)C2CC2)CC1 | -3.39
O=C(c1cccc(-c2ncc[nH]2)c1)N1CCC(N2CCCC(O)C2)CC1 (centres undefined) | 4.83
Cc1ccc(NC(=O)Nc2c[nH]c(=O)[nH]c2=O)c(C)c1 | 11.8
Cc1cccc(CN2CCn3c(C(=O)N(C)C)cnc3C2)c1 | -4.36
CN1C(=O)C(c2cccnc2)CC12CCN(CCO)CC2 (centres undefined) | -0.847
Cn1cc(C(C)(O)CNc2ccc(C(F)(F)F)cn2)cn1 (centres undefined) | -1.94
NC(=O)CCN(C(=O)CSc1ccc(F)cc1)c1ccc(F)cc1 | 30.2
O=C(NC[C@]12COC[C@H]1CN(CC1CCOCC1)C2)c1ccccc1 | 1.78
Cc1c(I)cccc1C(=O)NCc1nnc[nH]1 | -8.8
CCN(CCN1CCCCCC1)C(=O)c1cnc(-c2cccnc2)nc1 | -2.81
CC(C)(C)C(=O)NCC(=O)NCCc1nc(C(F)(F)F)cs1 | -9.84
c1ccc2c(c1)COC1(CCCCC1)N2 | -4.51
Clc1ccccc1-c1cc(CNc2ncnc3c2CCNCC3)no1 | 12.2
CCN(CC)C(=O)CSc1nc2cc(C)nc-2c(O)n1CC | 6.98
CN(C)c1cncc(C2CCN(CC3(O)CCCCC3)CC2)n1 | 25.1
Cc1nonc1C(=O)N1CCc2c(ncn2CCc2ccccc2)C1 | -7.1
CCn1ncc2c1CCCC2NCc1ccc(OC)c(C)c1 (centres undefined) | 33.6
